Results: patent publication US11931347B2, “Method of screening for agents for differentiating stem cells” (MINERVA BIOTECHNOLOGIES CORPORATION, priority 2015, dated 2024)

How the values were obtained:
[1] = tested on: human naïve state stem cells; test: stem cell drug screening assay on naïve state stem cells; assay type: cell-based; conditions: 6 uM, 3 days
Method: (§1) The stem cell screening assay, was performed in both the presence and absence of the stem cell growth factors: NME7AB for growing naïve stem cells or FGF for growing primed stem cells. If the cognate growth factor was present, then the biological or small molecule would have to compete away the growth factor to get an effect. Therefore, we expected to see more of an effect when the growth factor, FGF for primed stem cells or NME7AB or NME1 dimers for naïve stem cells, was absent. The effect of the compounds on stem cells was visually determined and compounds were ranked 0-4, with 4 being the greatest effect and 0 being no observable effect. The major effect that was observed was a change from pluripotent stem cell morphology, which is a cobblestone pattern of small round cells with a large nucleus to cytoplasm ratio, to that of differentiating stem cells, which are elongated, large and flattened cells with a smaller nucleus to cytoplasm ratio. […] The compounds were added to a final concentration of 6 uM to either naïve state stem cells or primed state stem cells. In this particular case, the naïve state stem cells were maintained in a naïve state by culturing in a media containing NME7AB or NME1 dimers. However, other methods such as 2i and 5i (Silva et al., 2008, Nichols and Smith, 2009, Theunissen et al., 2014)] can be used to maintain stem cells in a more naïve state. In this case primed state stem cells were cultured in bFGF over a layer of MEFs, although it is known that any bFGF containing media will maintain stem cells in the primed state.
Stem cells whether embryonic or induced pluripotent stem (iPS) cells were cultured in a minimal, serum-free media that contained human recombinant NME7AB at a concentration of 2-32 nM wherein 4-8 nM is preferred and 4 nM is more preferred. To facilitate surface attachment, cell culture plates were coated with an anti-MUC1* monoclonal antibody called MN-C3 or C3 or MN-C8 at a concentration of 2-100 ug/mL coating solution, wherein 3-50 ug/mL is preferred and 6-12.5 ug/mL is more preferred. In these experiments, 12.5 ug/mL of MN-C3 was used. Antibody coated plates were incubated at 4 degrees C. overnight prior to plating stem cells. A Rho kinase I inhibitor was added to enhance surface attachment. In some cases, NME7AB was substituted with human recombinant NME1 dimers which also induce stem cells to revert to a naïve-like state.
(§2) Human naïve state and primed stem cells were cultured in parallel for at least 5 passages to guarantee normal differentiation-free growth. The stem cells were plated in 12-well cell culture plates with 50,000 cells per well. Cells were cultured in their respective media, either bFGF media or NME7AB media for 24 hours. Media was then removed and replaced with media devoid of bFGF or NME7AB, when indicated. Agents being tested for their ability to induce differentiation of naïve stem cells were added to the media at the concentrations indicated. After 72 hours, photographs were taken see FIGS. 1-10.
(§3) Human naïve state and primed stem cells were cultured in parallel for at least 5 passages to guarantee normal differentiation-free growth. The stem cells were plated in 12-well cell culture plates with 50,000 cells per well. Cells were cultured in their respective media, either bFGF media or NME7AB media for 24 hours. Media was then removed and replaced with media devoid of bFGF or NME7AB. […] Media was changed after 48 hours and replaced with fresh media containing the BRD4 inhibitors. After 4 days the experiment was stopped. Photographs were taken and cell pellets collected for further analysis, see FIGS. 11-16.

[2] = tested on: human primed state stem cells; test: stem cell drug screening assay on primed state stem cells; assay type: cell-based; conditions: 6 uM, 3 days
Method: as §1
Stem cells whether embryonic or induced pluripotent stem (iPS) cells were cultured in a minimal, serum-free media that contained human recombinant bFGF at a concentration of 8 ng/mL. The stem cells were plated over a layer of inactivated mouse embryonic fibroblasts, aka MEFs, which secrete additional uncharacterized growth factors and cytokines.
as §2, §3

[3] = tested on: DU145 MUC1* positive prostate cancer cells; test: cancer cell proliferation assay (Calcein); assay type: cell-based; conditions: 96 hours (FIG. 109)
Method: (§4) Small molecule inhibition of cancer cell proliferation studies were also performed on several cancer sub-types. […] The small molecules of the invention had the most robust effect on T47D breast cancer cells, which are highly positive for MUC1* growth factor receptor, and its activating ligands NME7AB and NME7-X1. […] For the cancer cell proliferation experiment cancer cells were plated at constant densities (6000 cells/well) into a 96-well White-walled/Clear-bottom Tissue Culture Treated plate (Corning Incorporated, Big Flats, N.Y.). Small molecule analogs are added at T=24 hours in media with 2% FBS. Following the addition of the small molecules, the cells remain untouched for 120 hours with visual confirmations/inspections at 24, 48, 72 and 96 hours post plating. At the 120 hour mark a calcein fluorescence assay (Thermo Fisher Scientific, Waltham, Mass.) is performed on the plate. Calcein fluorescence (final concentration 0.5 uM) is used to assess cell viability. Cancer cell fluorescence is measured in a TECAN SAFIRE^2 spectrophotometer plate reader. The plate is then imaged using an Olympus IX71 fluorescence imaging microscope and montage of the resulting images are assembled using ImageJ.

[4] = tested on: MDA-MB-453 breast cancer cells; test: cancer cell proliferation assay (Calcein); assay type: cell-based; conditions: 96 hours (FIG. 110)
Method: as §4

[5] = tested on: PC-3 MUC1* negative, NME7AB positive prostate cancer cells; test: cancer cell proliferation assay (Calcein); assay type: cell-based; conditions: 96 hours (FIG. 111)
Method: as §4

T47D breast cancer cells [6] = test: cancer cell proliferation assay (Calcein live cell stain); assay type: cell-based, human; conditions: for inhibition of growth of T47D cells: live cell Calcein stain, 96 hours (FIG. 113)
Method: These analogs of MN1194 and 1186 were also tested in a cell growth assay (FIGS. 107A1-107H6 and FIG. 108A1-108H6, respectively). In this experiment, both parent compound and analogs thereof were added to normal cell culture media to final concentrations of 40 uM, 20 uM, 10 uM, 5 uM or 2.5 uM. For comparison, previously known cancer cell migration inhibitors SU11274 and MN1204 were included in the same experiment. […] Relative cell proliferation is quantified on a standard plate reader that reads the fluorescence of the Calcein that is taken up by live cells.
Small molecule inhibition of cancer cell proliferation studies were also performed on several cancer sub-types. […] The small molecules of the invention had the most robust effect on T47D breast cancer cells, which are highly positive for MUC1* growth factor receptor, and its activating ligands NME7AB and NME7-X1.
For the cancer cell proliferation experiment cancer cells were plated at constant densities (6000 cells/well) into a 96-well White-walled/Clear-bottom Tissue Culture Treated plate (Corning Incorporated, Big Flats, N.Y.). Small molecule analogs are added at T=24 hours in media with 2% FBS. Following the addition of the small molecules, the cells remain untouched for 120 hours with visual confirmations/inspections at 24, 48, 72 and 96 hours post plating. At the 120 hour mark a calcein fluorescence assay (Thermo Fisher Scientific, Waltham, Mass.) is performed on the plate. Calcein fluorescence (final concentration 0.5 uM) is used to assess cell viability. Cancer cell fluorescence is measured in a TECAN SAFIRE^2 spectrophotometer plate reader. The plate is then imaged using an Olympus IX71 fluorescence imaging microscope and montage of the resulting images are assembled using ImageJ.

T47D breast cancer cells [7] = test: cancer cell migration, invasion assay (Platypus/Oris system); assay type: cell-based, human; conditions: T47D, 120 hours
Method: We then tested an expanded panel of agents, including agents known to inhibit cancer growth or migration (FIG. 17) (Horm et al., 2012; Meng & Yue, 2014; Zhen et al., 2014), which is characteristic of aggressive or metastatic cancers. We also synthesized a series of novel small molecules, tested them in the stem cell drug screening assay, and then synthesized analogs of the best hits. These small molecules are pictured in FIGS. 18-27. Both the known compounds and the novel compounds were tested in the stem cell drug screening assay. The effects of the small molecules on naïve versus primed state stem cells are shown in the photographs of FIGS. 29-72. The small molecules pictured in FIGS. 17-27 and the biologicals were also tested in a cancer cell migration assay. A structure activity relationship table is seen in FIG. 28. Potent cancer cell migration is characteristic of cancer cell invasion of other tissues and of metastasis. Typical migration assays involve coating a cell culture plate with fibronectin, collagen or the like, plating cancer cells and making a scar across through the cells and measuring the time it takes for the cancer cells to invade the void space. An alternative approach that gives more reliable data is the Platypus System which is a special multi-well cell culture plate with a juxtaposed set of plugs that block off a circle in the center of each well. Cancer cells are plated while the plugs are in place, then they are removed after the cells attach to the plate surface. […] A bar graph summarizing the results of the known anti-migration compounds compared to the anti-MUC1* Fab E6 and the first few small molecules synthesized is shown in FIG. 73. The effect of two novel small molecules MN1186 and MN1194, compared to the known anti-migration molecule SU11274, is shown in FIG. 75A-75U. FIG. 75V is a graph showing the measured inhibition of cancer cell migration at time 0, 24 hours or 48 hours for a number of compounds. […] FIG. 75X is a graph showing how IC50's of the small molecules of the invention were measured and calculated.
Percent inhibition of cancer cell migration was performed in a wound healing assay. The Percent area that the invading cancer cells occupied, in the presence of a drug candidate compared to the controls, was quantified by Image J cell software which enables cell counting from photographs. IC50's were calculated by performing migration experiments at several compound concentrations and then applying Hill's equation. Inhibition of cancer cell proliferation was quantified by automated cell counting in the presence or absence of a drug candidate. Here, the potency of the drug candidate was simply scored 4 for the highest degree of inhibition and 0 for the lowest. […] The effect of each drug candidate was scored 0-4, with 4 being the highest in inhibiting cell proliferation (FIG. 28).
For the cancer cell migration experiment cancer cells were plated at varying densities into an Oris Cell Migration Assay Collagen-1 coated 96-well plate (Platypus Technologies LLC, Madison, Wis.). The Collagen-1 coated 96-well plate incorporates a specific vacuum plug which attaches to the bottom of each well, creating an area in which the cells cannot grow into. Once the cells have been plated at high densities into each well, they are allotted an 18-24 hour time period to attach to the bottom of the wells. Post-24 hour plugs are removed from the plate and then small molecule analogs are added to the wells. Images are taken of each well and represent time 0 (T=0) for each well. Images are taken of the wells at the 24, 48, 72, 96 and 120 hour time points. Data analysis is conducted using the images taken at these specific time point. Images are imported into ImageJ (Rasband, W. S., ImageJ, U. S. National Institutes of Health, Bethesda, Md., USA, http://imagej.nih.gov/ij/, 1997-2016.) and the area remaining free of cells is calculated. […]

[8] = tested on: E-cadherin, fibronectin, vimentin and NF1 expression in naïve stem cells; test: RT-PCR of differentiation markers in treated naïve stem cells; assay type: cell-based, human
Method: FIG. 161 is a graph of RT-PCR measurement of naïve stem cells that have been treated with compounds of the invention. The genes whose expression is measured are E-cadherin, which goes […] as cells undergo epithelial to mesenchymal transition, fibronectin and vimentin, which both increase as stem cells initiate differentiation and NF1, which is one of the first genes to increase when stem cells begin to differentiate down the neural lineage. […] E-cadherin is the opposite; it […] as cells become cancerous. […] Expression of metastatic marker E-cadherin was reduced and expression of differentiation markers fibronectin, vimentin and NF1 were increased (FIG. 162-FIG. 163). Novel compounds of the invention are highly specific. […] Although we discovered that NME1 dimers, NME7AB and NME7-X1 are all activating ligands of the MUC1* growth factor receptor and they bind to its extracellular domain, we have developed ample evidence that both NME7AB and NME7-X1 have other binding partners and can exert oncogenic effects, independent of MUC1*.

SMILES	effect on naïve stem cell pluripotency, growth or differentiation (visually determined) [1]	effect on primed stem cell pluripotency, growth or differentiation (visually determined) [2]	inhibition of growth of DU145 cells [3]	inhibition of growth of MDA-MB-453 cells [4]	inhibition of growth of PC-3 cells [5]	inhibition of growth of T47D cells (T47D breast cancer cells [6])	inhibition of cancer cell proliferation relative to parent compounds (T47D breast cancer cells [6]; T47D, Calcein assay after 120 hours, 40-2.5 uM)	inhibition of cancer cell migration (T47D breast cancer cells [7])	up-regulation of markers of differentiation in naïve stem cells (RT-PCR) [8]
CCCCNC(=O)N1CCc2c([nH]c3ccccc23)C1C(C)c1ccccc1 (centres unmarked) [MN1130]	induced differentiation	modest effect	inhibited the growth	inhibited the growth	inhibited the growth	severely inhibited growth			
CC(C)CC1c2[nH]c3cc(F)ccc3c2CCN1C(=O)CNC(=O)OC(C)(C)C (centres unmarked) [MN1227]			inhibited the growth	inhibited the growth	inhibited the growth	severely inhibited growth	inhibit cancer cell proliferation better than parent compounds	improvements over MN1186	
CC(C)C1c2[nH]c3ccccc3c2CCN1C(=O)CCCCNC(=O)OC(C)(C)C (centres unmarked) [MN1235]									failed to induce differentiation
CC(C)CC1c2[nH]c3ccccc3c2CCN1C(=O)C1CCC(CNC(=O)OC(C)(C)C)CC1 (centres unmarked) [MN1246]			inhibited the growth	inhibited the growth	inhibited the growth	severely inhibited growth			
